Broadly, the inhibition is the change of the read-out against control, counted positive when it falls. What is called IC50 is the concentration that inhibits the measured activity by half. Read a high IC50 as weaker potency in that assay. One may read the CC50 as the concentration at which the toxic effect on the cells reaches its halfway point. As usually defined, the EC50 is the concentration at which the effect is half-maximal.

The text below walks through data of ChEMBL document CHEMBL5579788 (Bioorg Med Chem Lett, 2024).

The structures appear in SMILES notation.

Series [1] concerns the target Replicase polyprotein 1ab (Severe acute respiratory syndrome coronavirus 2) (UniProt P0DTD1). Description: Inhibition of SARS CoV-2 main protease at 10 uM relative to control.
Series [2] concerns the target Replicase polyprotein 1ab (Severe acute respiratory syndrome coronavirus 2, UniProt P0DTD1). Description: (§1) Inhibition of SARS CoV-2 main protease.
Series [3] in a line: Cytotoxicity against HEK293-A cells assessed as reduction in cell viability by CCK-8 assay. The series is classed as toxicity, cell-based. Particulars: human. (Formazan colour is commonly taken as a measure of viable cells.)
Series [4] concerns the target Replicase polyprotein 1ab (Severe acute respiratory syndrome coronavirus 2) (UniProt P0DTD1). The series is described as §1.
Series [5] has the same target. Description: Inhibition of SARS CoV-2 main protease at 50 uM relative to control.
The test system of series [6] is SARS-CoV-2. Briefly: Antiviral activity against SARS-CoV-2. In kind it is functional, organism-based. Particulars: Severe acute respiratory syndrome coronavirus 2.
For series [7], the system named is SARS-CoV-2. Briefly: Antiviral activity against wild type SARS-CoV-2 infected in Vero E6 cells assessed as inhibition of viral induced cytopathic effect incubated for 72 hrs by MTT assay. In kind it is functional, organism-based. Particulars: Severe acute respiratory syndrome coronavirus 2, Vero C1008, 72 h.

Take `O=C(Nc1ccc(Cl)cc1)C1c2cccc[n+]2CC(=O)N1c1cccc(Cl)c1` (centres undefined): the inhibition in series [1] came out at 84.5%. Also, inhibition in series [2] was half-maximal at 5.1 µM (IC50).
Take `CCc1cccc(C)c1N1C(=O)C[n+]2ccccc2C1C(=O)Nc1ccccc1C` (centres undefined): in series [1], the inhibition is less than 20%.
`Cc1ccc(N2C(=O)C[n+]3ccccc3C2C(=O)Nc2ccccc2C)cc1` (centres undefined) registered an inhibition in series [1] of 83%. This molecule also had an IC50 in series [2] of 6.1 µM.
With `Cc1ccccc1NC(=O)C1c2cccc[n+]2CC(=O)N1C` (centres undefined), the inhibition in series [1] is 75.3%. Further, the 50% cytotoxic concentration (CC50) in series [3] was greater than 300 µM. The half-maximal inhibitory concentration (IC50) in series [2] is 4 µM.
In series [1], `Cc1ccc(N2C(=O)C[n+]3ccccc3C2(C)C(=O)Nc2ccc(Cl)cc2)cc1` (centres undefined) showed an inhibition of less than 20%.
The same measure, in the same setting: then `Cc1ccccc1NC(=O)C1c2cccc[n+]2CC(=O)N1c1c(C)cccc1C` (centres undefined), with less than 20%.
As to `CN1C(=O)C[n+]2ccccc2C1C(=O)Nc1ccccc1` (centres undefined), the inhibition in series [1] turned out to be 93.3%. The molecule also came in with an IC50 in series [2] of 8.9 µM.
The matching figures for `O=C(Nc1ccc(Cl)cc1)C1c2cccc[n+]2CC(=O)N1c1ccc(Cl)cc1` (centres undefined): 75.7% and 9.6 µM.
In the case of `O=C(Nc1ccc(Cl)cc1)C1c2cccc[n+]2CC(=O)N1Cc1ccc2c(c1)OCO2` (centres undefined), in series [1], the inhibition was determined as 72.5%. In addition, the CC50 in series [3] was greater than 300 µM. This molecule had an IC50 in series [2] of 6.9 µM.
In series [1], `CCCN1C(=O)C[n+]2ccccc2C1C(=O)Nc1c(C)cccc1C` (centres undefined) registered an inhibition of less than 20%.
`Cc1ccccc1N1C(=O)C[n+]2ccccc2C1C(=O)Nc1ccccc1` (centres undefined): in series [1], the inhibition turned out to be 78.7%. In series [2], this molecule yielded an IC50 of 5.6 µM.
`Cc1cccc(C)c1NC(=O)C1c2cccc[n+]2CC(=O)N1c1ccc(Cl)cc1` (centres undefined) had an inhibition in series [1] of 50.1%.
`Cc1cccc(N2C(=O)C[n+]3ccccc3C2C(=O)Nc2ccccc2)c1` (centres undefined): the results for the inhibition in series [1], in series [4] and in series [5] were 80.5%, “Dose-Dependent Effect” and greater than 50%, respectively. Also, in series [2], the IC50 came to 6.1 µM.
In turn, `Cc1cc(C)cc(N2C(=O)C[n+]3ccccc3C2C(=O)Nc2ccccc2C)c1` (centres undefined) had an inhibition in series [1] of 66.6%.
In the case of `Cc1cccc(C)c1NC(=O)C1c2cccc[n+]2CC(=O)N1C` (centres undefined), the inhibition in series [1] was determined as 85.8%. The same molecule registered a 50% inhibitory concentration (IC50) in series [2] of 8.3 µM.
Take `CC1(C(=O)Nc2ccc(Cl)cc2)c2cccc[n+]2CC(=O)N1c1ccc(Cl)cc1` (centres undefined): the inhibition in series [1] is less than 20%.
For `O=C[C@H](C[C@@H]1CCNC1=O)NC(=O)[C@H](Cc1cccc(F)c1)NC(=O)c1cc2ccccc2[nH]1`, the EC50 with SARS-CoV-2 [6] stood at 0.72 µM.
In series [1], `O=C(Nc1ccc(Cl)cc1)C1c2cccc[n+]2CC(=O)N1c1ccc(Br)cc1` (centres undefined) had an inhibition of 82.2%. Moreover, in series [2], 8.5 µM corresponded to half-maximal inhibition (IC50).
Regarding `COc1ccccc1N1C(=O)C[n+]2ccccc2C1C(=O)Nc1c(C)cccc1C` (centres undefined), in series [1], the inhibition was less than 20%.
Molecule `Cc1cccc(C)c1NC(=O)C1c2cccc[n+]2CC(=O)N1Cc1ccc2c(c1)OCO2` (centres undefined) gave an inhibition in series [1] of less than 20%.
The same measure, in the same setting: then `CCOc1ccc(NC(=O)C2c3cccc[n+]3CC(=O)N2c2ccc(OC)cc2)cc1` (centres undefined), with 30%.
On to `O=C1C2C3C=CC(CO)(O3)C2C(=O)N1c1cc(C(F)(F)F)ccc1Cl` (centres undefined), for which the results for the inhibition result in series [4] and in series [5] were “Dose-Dependent Effect” and greater than 50%, respectively. Moreover, the IC50 in series [2] worked out at 4.4 µM.
Regarding `Cc1cccc(C)c1NC(=O)C1c2cccc[n+]2CC(=O)N1c1cccc(C(F)(F)F)c1` (centres undefined), the inhibition in series [1] is less than 20%.
Molecule `CCOc1ccc(N2C(=O)C[n+]3ccccc3C2C(=O)Nc2ccc(Cl)cc2)cc1` (centres undefined) gave an inhibition in series [1] of 47.2%.
Molecule `Cc1ccc(N2C(=O)C[n+]3ccccc3C2C(=O)Nc2ccc(Cl)cc2)cc1Br` (centres undefined) gave an inhibition in series [1] of 78.2%. The CC50 in series [3] was greater than 300 µM. For the same molecule, in series [2], the half-inhibitory concentration (IC50) came out at 4.5 µM.
In series [1], `CCOc1ccc(NC(=O)C2c3cccc[n+]3CC(=O)N2c2ccc(OCC)cc2)cc1` (centres undefined) displayed an inhibition of 21.7%.
As for `CC(C)(C)C(=O)N[C@H](C(=O)N1CC2(C[C@H]1C(=O)N[C@H](C#N)C[C@@H]1CCNC1=O)SCCS2)C(C)(C)C`, it took 0.57 µM to reach a half-maximal effect with SARS-CoV-2 [6] (EC50). Further, in series [2], the half-inhibitory concentration (IC50) is 0.022 µM.
In turn, `Cc1cccc(C)c1NC(=O)C1c2cccc[n+]2CC(=O)N1CCO` (centres undefined) had an inhibition in series [1] of less than 20%.
Same read-out and setting: then `Cc1ccc(N2C(=O)C[n+]3ccccc3C2C(=O)Nc2c(C)cccc2C)cc1Cl` (centres undefined), with less than 20%; and `COc1ccc(NC(=O)C2c3cccc[n+]3CC(=O)N2c2ccccc2O)cc1` (centres undefined), with 26.5%; and `Cc1cccc(C)c1NC(=O)C1c2cccc[n+]2CC(=O)N1c1cccc(Cl)c1` (centres undefined), with 31%.
Same read-out and setting: then `CCN1C(=O)C[n+]2ccccc2C1C(=O)Nc1c(C)cccc1C` (centres undefined), with less than 20%.
With `O=C(Nc1ccccc1)C1c2cccc[n+]2CC(=O)N1c1ccc(Br)cc1` (centres undefined), the inhibition in series [1] is 71.3%. This molecule showed an IC50 in series [2] of 8.6 µM.
Regarding `CCOc1ccc(NC(=O)C2c3cccc[n+]3CC(=O)N2c2ccccc2)cc1` (centres undefined), in series [1], the inhibition was determined as 80.4%. In addition, the midpoint of inhibition in series [2], the IC50, lay at 5 µM.
`C=CCN1C(=O)C[n+]2ccccc2C1C(=O)Nc1c(C)cccc1C` (centres undefined) showed an inhibition in series [1] of less than 20%.
For `O=C(NC1CCCC1)C(=O)[C@H](CC1CCNC1=O)NC(=O)[C@@H]1[C@H]2CCC[C@H]2CN1C(=O)[C@@H](NC(=O)C(F)(F)F)C1CCCCC1` (some centres undefined), the EC50 in the series on SARS-CoV-2 [7] was 0.095 µM.
In series [1], `Cc1cccc(C)c1NC(=O)C1(C)c2cccc[n+]2CC(=O)N1c1ccc(Cl)cc1` (centres undefined) came in with an inhibition of 32.1%.
On to `Cc1cc(C)cc(N2C(=O)C[n+]3ccccc3C2C(=O)Nc2ccc(Cl)cc2)c1` (centres undefined), for which, in series [1], the inhibition worked out at 75.7%. The same molecule gave an IC50 in series [2] of 8.8 µM.
For the molecule `Cc1cccc(C)c1NC(=O)C1c2cccc[n+]2CC(=O)N1c1ccc2c(c1)OCO2` (centres undefined), the inhibition in series [1] was less than 20%.
Molecule `O=C(Nc1ccccc1)C1c2cccc[n+]2CC(=O)N1c1ccccc1` (centres undefined) yielded an inhibition in series [1] of 84.3%. In addition, half-maximal inhibition in series [2] (IC50) was put at 5.2 µM.
For the molecule `COc1ccc(N2C(=O)C[n+]3ccccc3C2C(=O)Nc2ccc(Cl)cc2)cc1` (centres undefined), the inhibition in series [1] worked out at 57.7%.
